Here are results for one molecule from ChEMBL document CHEMBL3352087 (J Med Chem, 2014).

Values after ≈ are worked out from the molar mass of the structure shown.

The target in series [1] is T1, Beta-secretase 1 (Homo sapiens, UniProt P56817). In words: Inhibition of purified recombinant human BACE1 expressed in CHO cells assessed as uncleaved biotinylated sAPP after 2 hrs by HTRF assay. (In general: Time-resolved FRET reads energy transfer from a long-lived donor to a nearby acceptor.)
Series [2] deals with LLC-PK1. In words: Efflux ratio of permeability from basolateral to apical side to apical to basolateral side in pig LLC-PK1 cells transfected with human MDR1 at 1 uM. Type of series: ADME, cell-based, Sus scrofa. To be noted: llc-pk1, 1 µM, 1 µM.
The target in series [3] is T1, Beta-secretase 1. In words: Inhibition of BACE1 in HEK293 cells expressing swedish double mutant APP assessed as amyloid beta (1 to 40) peptide level after 7 hrs by HTRF assay. Type of series: cell-based.
The subject of series [4] is LLC-PK1. In words: Apparent permeability from apical to basolateral side in pig LLC-PK1 cells transfected with human MDR1. The following applies: llc-pk1. Format: ADME, cell-based, Sus scrofa.
The nature of series [5]: Drug level in Sprague-Dawley rat CSF at 60 mg/kg, po measured at 5 hrs post dose. Details: dose 60 mg/kg, route oral. Format: ADME, organism-based, Cerebrospinal fluid. To be noted: read-out: Drug uptake.
Series [6] in a line: Fraction unbound in Sprague-Dawley rat brain. Format: ADME, tissue-based.
A short description of series [7]: Ratio of free drug level in brain of Sprague-Dawley rat at 60 mg/kg, po measured at 3 hrs post dose to IC50 for BACE1 in HEK293 cells expressing swedish double mutant APP. Details: dose 60 mg/kg, route oral. Format: ADME, organism-based. The following applies: in vivo.
A short description of series [8]: Ratio of free drug level in brain to plasma of Sprague-Dawley rat at 60 mg/kg, po measured at 5 hrs post dose. Format: ADME, organism-based. Details: dose 60 mg/kg, route oral. The following applies: brain and plasma, read-out: BPR.
In series [9] the test system is Plasma. In words: Free plasma concentration in Sprague-Dawley rat at 60 mg/kg, po measured at 5 hrs post dose. Type of series: ADME, organism-based. To be noted: in vivo. Details: dose 60 mg/kg, route oral.
For series [10], the system named is Brain. In words: Free drug level in Sprague-Dawley rat brain at 60 mg/kg, po measured at 5 hrs post dose. Format: ADME, organism-based. Details: dose 60 mg/kg, route oral. To be noted: in vivo.
The nature of series [11]: Solubility of the compound at pH 7.2. Type of series: physicochemical. To be noted: buffer.
Series [12] in a line: Ratio of free drug level in brain to plasma of Sprague-Dawley rat at 60 mg/kg, po measured at 3 hrs post dose. Type of series: ADME, organism-based. Details: dose 60 mg/kg, route oral. To be noted: brain and plasma, read-out: BPR.
In series [13] the test system is Plasma. In words: Free plasma concentration in Sprague-Dawley rat at 60 mg/kg, po measured at 3 hrs post dose. Format: ADME, organism-based. Details: dose 60 mg/kg, route oral. To be noted: in vivo.
The nature of series [14]: Drug level in Sprague-Dawley rat CSF at 60 mg/kg, po measured at 3 hrs post dose. Type of series: ADME, organism-based, Cerebrospinal fluid. Details: dose 60 mg/kg, route oral. The following applies: read-out: Drug uptake.
Series [15] is described as follows: Ratio of free drug level in brain of Sprague-Dawley rat at 60 mg/kg, po measured at 5 hrs post dose to IC50 for BACE1 in HEK293 cells expressing swedish double mutant APP. Format: ADME, organism-based. Details: dose 60 mg/kg, route oral. The following applies: in vivo.
The subject of series [16] is Brain. Put plainly: Free drug level in Sprague-Dawley rat brain at 60 mg/kg, po measured at 3 hrs post dose. Type of series: ADME, organism-based. Details: dose 60 mg/kg, route oral. The following applies: in vivo.
Series [17] deals with Rattus norvegicus. In words: Reduction in amyloid beta(1 to 40) in Sprague-Dawley rat CSF at 60 mg/kg, po measured at 3 hrs post dose. Format: functional. Details: scale not given: the % may be the effect or the level left.
Series [18] has as its system Rattus norvegicus. Put plainly: Reduction in amyloid beta(1 to 40) in Sprague-Dawley rat CSF at 60 mg/kg, po measured at 5 hrs post dose. Format: functional. Details: scale not given: the % may be the effect or the level left.

What is called IC50 is the midpoint of a concentration-inhibition curve. As usually defined, the Papp is a coefficient for how fast a substance crosses the barrier. In general, fraction unbound refers to the share of the substance not bound to proteins or other matrix. By solubility is commonly meant how much of the substance goes into solution per volume.

T1 sequence (P56817 whole entry): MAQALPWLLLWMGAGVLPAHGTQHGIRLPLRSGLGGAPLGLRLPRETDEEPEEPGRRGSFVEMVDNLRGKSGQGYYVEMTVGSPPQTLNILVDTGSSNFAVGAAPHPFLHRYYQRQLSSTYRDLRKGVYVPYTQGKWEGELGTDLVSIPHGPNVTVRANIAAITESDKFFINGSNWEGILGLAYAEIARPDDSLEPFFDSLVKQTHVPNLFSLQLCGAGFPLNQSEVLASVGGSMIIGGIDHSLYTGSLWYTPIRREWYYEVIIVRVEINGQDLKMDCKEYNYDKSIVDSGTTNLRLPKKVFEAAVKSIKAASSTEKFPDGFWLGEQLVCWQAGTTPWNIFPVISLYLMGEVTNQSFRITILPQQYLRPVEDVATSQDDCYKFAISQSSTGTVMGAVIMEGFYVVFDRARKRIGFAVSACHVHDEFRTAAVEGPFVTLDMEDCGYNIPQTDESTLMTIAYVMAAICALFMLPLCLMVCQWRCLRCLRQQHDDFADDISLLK

For the molecule `C[C@]12CCCO[C@@H]1[C@]1(COC(N)=N1)c1cc(-c3cccc(C#N)c3)ccc1O2`, the IC50 in [1] amounted to 45 nM; in series [3] it was 39 nM. The Ratio is reported as 3.4 in [2], 2.3 in series [7] and 2.1 in series [15]. Further, in series [4], the Papp is 19 ×10⁻⁶ cm/s. The concentration at 5 h in series [5] is 230 nM. The molecule further gave a fraction unbound in series [6] of 0.014. Also, in [8], the Kp uu at 5 h stood at 0.32. Also, the “Cp(f)” value in series [9] came to 250 nM; in [13], 270 nM. For the same molecule, the “Drug uptake(free)” value in series [10] worked out at 80 nM; in [16], 88 nM. In [11], the solubility turned out to be 57 µg/mL (≈ 152 µM). The Kp uu at 3 h in series [12] worked out at 0.33. Also, the concentration at 3 h in series [14] came to 150 nM. Also, the Activity in series [17] stood at 63%; in series [18] it was 69%.
